The results in this text go back to ChEMBL document CHEMBL4052813, “Achyrodimer F, a tyrosyl-DNA phosphodiesterase I inhibitor from an Australian fungus of the family Cortinariaceae” (Bioorg Med Chem Lett, 2017).

Each structure is given as a SMILES string.

The target of assay [1] is T1, Tyrosyl-DNA phosphodiesterase 1 (Homo sapiens, UniProt Q9NUW8). The experiment in a line: Inhibition of Tdp1 (unknown origin) up to 40 uM using 5'-(6-TAMN-AGGATCTAAAAGACTT-BHQ-)3' as substrate pretreated for 30 mins followed by substrate addition by fluorescence assay.
T1 sequence (Q9NUW8 whole entry): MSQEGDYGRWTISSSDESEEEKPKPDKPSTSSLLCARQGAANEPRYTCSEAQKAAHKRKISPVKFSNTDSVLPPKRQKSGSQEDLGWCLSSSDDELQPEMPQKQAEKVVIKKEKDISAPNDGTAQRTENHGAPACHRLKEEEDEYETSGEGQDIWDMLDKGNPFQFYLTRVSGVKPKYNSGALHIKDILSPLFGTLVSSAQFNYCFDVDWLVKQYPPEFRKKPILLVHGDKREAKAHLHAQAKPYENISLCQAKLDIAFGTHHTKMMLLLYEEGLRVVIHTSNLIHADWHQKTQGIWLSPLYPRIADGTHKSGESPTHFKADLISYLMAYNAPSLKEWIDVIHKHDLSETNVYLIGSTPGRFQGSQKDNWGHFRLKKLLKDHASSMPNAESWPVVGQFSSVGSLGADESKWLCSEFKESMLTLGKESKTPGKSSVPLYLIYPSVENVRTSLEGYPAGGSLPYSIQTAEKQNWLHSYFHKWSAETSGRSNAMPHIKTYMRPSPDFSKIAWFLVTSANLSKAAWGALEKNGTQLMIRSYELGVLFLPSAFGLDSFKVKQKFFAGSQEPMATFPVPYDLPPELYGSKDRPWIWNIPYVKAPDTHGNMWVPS
In assay [2] the target is T1, Tyrosyl-DNA phosphodiesterase 1. The experiment in a line: Inhibition of Tdp1 (unknown origin) using 5'-(6-TAMN-AGGATCTAAAAGACTT-BHQ-)3' as substrate pretreated for 30 mins followed by substrate addition by fluorescence assay.

`O=c1cc(O)cc(/C=C/c2ccc(O)cc2)o1`: the inhibition result in assay [1] is “Dose-dependent effect”.

Consider `O=c1cc(O)cc(/C=C/c2ccc(O)c(O)c2)o1`, for which the inhibition result in assay [1] is “Dose-dependent effect”.

As a reminder, the IC50 is the midpoint of a concentration-inhibition curve. As to `O=c1cc(O)cc([C@H]2[C@H](c3ccc(O)cc3)[C@H](c3cc(O)cc(=O)o3)[C@H]2c2ccc(O)cc2)o1`, the IC50 in assay [2] came to 1000 nM.
